Source: US6660468B1, “Vitro and in vivo models for screening compounds to prevent glucocorticoid-induced bone destruction” (Board of Trustees of the University of Arkansas, priority 1998, dated 2003)
Several values for one entry are separate records, joined by “and”; a condition that tells them apart may be missing. Identical values can stand only once. One block for each compound: values may come before it.

What was measured:
[1] = test system: Male Swiss Webster mice; test: Bone densitometry (DEXA) in prednisolone-treated mice; assay type: in vivo, mouse; conditions: for Global BMD (% change) / Hindquarters BMD (% change) / Spinal BMD (% change): 27 days
Excerpt: (§1) Bone mineral density (BMD) determinations were done at two week intervals to identify the peak adult bone mass of the mice, which was reached between 5 and 6 months-of-age (9). Animals at peak bone mass were used to avoid obscuring the negative impact of glucocorticoid excess on bone mineral density by the confounding effects of increased linear and radial growth. Before the experiment began, bone mineral density measurements were repeated to allocate the animals into groups (n=4-5) with equivalent spinal density values. […] These doses were administered for 27 days by subcutaneous implantation of slow-release pellets (Innovative Research of America, Sarasota, Fla.). Bone mineral density measurements were obtained at the beginning of the experiment and 27 days post-implantation. For dynamic histomorphometric measurements, tetracycline HCl (30 mg/kg body weight) was given intraperitoneally 17 and 23 days post-implantation. After 27 days, the mice were sacrificed, serum and urine specimens were taken, bone marrow aspirates were obtained from the right femur for ex vivo marrow cell cultures and the left femur and lumbar vertebrae were prepared for histomorphometric analysis. Livers were examined for fatty infiltration as a sign of prednisolone toxicity. The weight of the seminal vesicles (mg/100 g body weight) was used as an index of the androgen status of the animals (12). To help interpret these measurements, a separate group of animals was orchidectomized (n=5).
Dual-energy X-ray absorptiometry (DEXA) was used to determine global (whole body minus the head), spinal and hindquarters bone mineral density in live mice (7,9). The scans done at 27 days after pellet implantation were analyzed using the ‘Compare’ technique, in which the evaluation is based on the exact positioning and region of interest placement of the baseline scan. […] Over the 18 months, the coefficient of variation for the bone mineral density of a plastic-embedded whole mouse skeleton was 3.0% (n=146).

[2] = test system: Male Swiss Webster mice; test: Serum and urine biochemical measurements (osteocalcin, deoxypyridinoline); assay type: in vivo, mouse; conditions: 27 days; for Osteocalcin: serum; for Deoxypyridinoline: urine
Method: as §1, with “Animals” for “Bone mineral density (BMD) determinations were done at two week intervals to identify the peak adult bone mass of the mice, which was reached between 5 and 6 months-of-age (9). Animals”
Serum osteocalcin was measured by radioimmunoassay using a goat anti-murine osteocalcin and murine osteocalcin as tracer and standard (Biomedical Technologies, Stoughton, Mass.). Urinary free deoxypyridinoline excretion was determined by a microtiter competitive enzyme immunoassay (Pyrilinks-D, Metra Biosystems, Mountain View, Calif.) and was expressed as a ratio to the urinary creatinine.

[3] = Food intake, body weight, seminal vesicle weight and hepatic fatty infiltration; assay type: in vivo, mouse; conditions: mice; for Seminal Vesicle Weight: index of androgen status
Method: Male Swiss Webster mice (Charles River Laboratories, Stone Ridge, N.Y.) were electronically tagged (Biomedic Data System Inc., Maywood, N.J.) and kept in plastic cages (3-5 animals per cage) under standard laboratory conditions with a 12 hr dark, 12 hr light cycle and a constant temperature of 20° C. and humidity of 48%. All mice were fed on a standard rodent diet (Agway RMH 3000, Arlington Heights, Ill.) containing 22% protein, 5% fat, 5% fiber, 6% ash, 3.5 Kcal/g, 1.0 IU vitamin D3/g, 0.97% calcium and 0.85% phosphorus with water ad libitum. The animals and food supply were weighed at one week intervals throughout the experiment. Studies were approved by the UAMS Division of Laboratory and Animal Medicine.
as §1

[4] = test system: murine vertebral cancellous bone; test: Vertebral cancellous bone histomorphometry after 27 days
Method: as §1, with “Animals” for “Bone mineral density (BMD) determinations were done at two week intervals to identify the peak adult bone mass of the mice, which was reached between 5 and 6 months-of-age (9). Animals”
(§2) The distal femora and lumbar vertebrae were fixed in 4° C. Millonig's phosphate-buffered 10% formalin, pH 7.4, embedded undecalcified in methyl methacrylate and stained (7,9,13). The histomorphometric examination was done with a computer and digitizer tablet (OsteoMetrics Inc. Version 3.00, Atlanta, Ga.) interfaced to a Zeiss Axioscope (Carl Zeiss, Inc., Thornwood, N.Y.) with a drawing tube attachment. All cancellous measurements were two-dimensional, confined to the secondary spongiosa and made at ×400 magnification (numerical aperture 0.75). The terminology and units used are those recommended by the Histomorphometry Nomenclature Committee of the American Society for Bone and Mineral Research (14). The trabecular width and osteoid width were measured directly. Trabecular spacing and number were calculated (15). Only TRAPase-positive cells were included in the osteoclast perimeter. The rate of bone formation (μm^2/μm/d) and turnover (%/d) were calculated (7).

[5] = test system: CFU-F, CFU-OB and osteoclast progenitors in bone marrow cells; test: Osteoblastogenesis and osteoclastogenesis in ex vivo bone marrow cell cultures; set-up: species or system mouse; conditions: 27 d
Method: One femur from each mouse was flushed with 5 ml of phenol red-free αMEM (Gibco BRL, Gaithersburg, Md.) containing 10% FBS (Hyclone, Logan, Utah) to obtain marrow cells. After the cells were rinsed and resuspended to obtain a single cell suspension, the nucleated cell count was determined using a Coulter Counter. Cells from each animal were cultured separately.
The number of colony-forming unit-fibroblast (CFU-F) and CFU-osteoblast (CFU-OB) present in the bone marrow preparations were determined (16-18). Briefly, cells were seeded at 1.5×10^6 per 10 cm^2 well for the determination of CFU-F number and maintained for 10 days in phenol red-free αMEM containing 15% preselected FBS, 50 μM ascorbic acid and 10 mM β-glycerophosphate (Sigma Chemical Co, St. Louis, Mo.) with one-half of the medium replaced after 5 days. After fixation in neutral buffered formalin and staining with hematoxylin, colonies containing a minimum of 20 fibroblastoid cells were enumerated. Cells were seeded at 2.5×10^6 cells per 10 cm^2 well for the determination of CFU-OB number and cultured for 25-28 days as described above for CFU-F. After fixation in 50% ethanol and 18% formaldehyde, cultures were stained using Von Kossa's method to visualize and enumerate colonies containing mineralized bone matrix.
Osteoclast formation in bone marrow cultures was assessed in replicate cultures (4-6 from each animal) maintained for 9 days in the presence of αMEM, 10% FBS and 10 nM 1.25(OH)2D3 (7). Briefly, marrow cells were cultured at 1.5×10^6 per 2 cm^2 well on 13 mm round Thermanox disks and maintained for 8 days in the presence of 10% FBS in αMEM supplemented with 10^−8 M 1.25(OH)2D3 (provided by Dr. Milan Uskokovic, Hoffman-LaRoche, Nutley, N.J.). At the end of the experiment, cells were processed for the autoradiographic detection of bound ^125I-calcitonin (^125I-CT) and stained for tartrate-resistant acid phosphatase. […] Therefore, mononucleated and multinucleated cells that both bind ^125I-CT and express TRAPase were designated as osteoclastic cells. The number of osteoclasts formed in this assay is a reflection of the number of osteoclast progenitors present in the bone marrow aspirate and the number of stromal/osteoblastic support cells that form during the culture period.
The number of CFU-F colonies, CFU-OB colonies, and osteoclastic cells formed from the marrow cells of each animal was expressed as the number per femur, which was calculated by multiplying the number of colonies or osteoclasts obtained per 10^6 cells seeded at the initiation of the cultures by the total number of marrow cells obtained from the animal.

[6] = test system: murine osteoblasts and osteocytes; test: Apoptosis (TUNEL) in undecalcified murine bone sections; assay type: in vivo, mouse
Method: (§3) Sections were mounted on silane-coated glass slides (Scientific Device Lab, Inc., Des Plains, Ill.), deplasticized and incubated in 10 mM citrate buffer, pH 7.6, in a microwave oven at 98° C. for 5 minutes. Slides were then incubated with 0.5% pepsin for 30 minutes at 37° C. Apoptotic cells were detected by the TUNEL reaction (transferase-mediated biotin-dUTP nick end-labeling) using Klenow terminal deoxynucleotidyl transferase (Oncor, Gaithersburg, Md.) in sections counterstained with 1% methyl green. The TUNEL reaction was noted within cell nuclei and the cells whose nuclei were clearly brown from the peroxidase-labeled anti-digoxigenin antibody instead of the blue-green from the methyl green were interpreted as positive. Plastic-embedded sections of weaned rat mammary tissue were used as a positive control. Negative controls were made by omitting the transferase. Morphological changes characteristic of apoptosis were examined carefully to minimize ambiguity regarding the interpretation of results. With these precautions, TUNEL has been unequivocally associated with apoptosis (19). […] Apoptosis was also assessed in transiliac bone biopsy specimens taken from two patients with glucocorticoid-induced osteoporosis (receiving 15 to 25 mg/d of prednisone for 3 to 6 yr) and from 12 age-, sex- and race-matched controls (13). Two longitudinal sections were examined from each patient and control subject. Osteoblasts were identified as cuboidal cells lining the osteoid-covered trabecular perimeter (7,9,13). Osteocytes were identified inside lacunae in mineralized bone.

[7] = test system: murine vertebral cancellous bone; assay type: in vivo, mouse
Method: as §2
To directly establish whether glucocorticoids initially accelerate bone resorption in the mouse, the vertebral cancellous bone histology were examined in an additional group of somewhat younger mice (5-mo-old) after 7 days administration of the higher dose of prednisolone or placebo (n=5).

[8] = test system: human osteoblasts and osteocytes; test: Apoptosis (TUNEL) in transiliac bone biopsies of patients with glucocorticoid-induced osteoporosis; assay type: in vivo; conditions: two patients
Method: as §3, with “Two longitudinal sections were examined from each patient and control subject. Osteoblasts were identified as cuboidal cells lining the osteoid-covered trabecular perimeter (7,9,13). Osteocytes were identified inside lacunae in mineralized bone.” left out

[9] = test system: human cancellous bone; test: Bone histomorphometry of transiliac bone biopsies of patients; assay type: in vivo; conditions: two patients
Method: as §2, §3

[10] = higher dose (2.1 mg/kg/d), 27 days, vs placebo

Global BMD (% change) ([1]; 0.7 mg/kg/d s.c. slow-release pellet): −5.0 ± 2.2 % change | Hindquarters BMD (% change) ([1]; 0.7 mg/kg/d): −3.8 ± 8.0 % change | Spinal BMD (% change) ([1]; 0.7 mg/kg/d): −6.8 ± 3.2 % change | Global BMD (% change) ([1]; 2.1 mg/kg/d s.c. slow-release pellet): −6.6 ± 1.9 % change | Hindquarters BMD (% change) ([1]; 2.1 mg/kg/d): −3.4 ± 6.9 % change | Spinal BMD (% change) ([1]; 2.1 mg/kg/d): −8.7 ± 3.5 % change | Effect on bone mineral density ([1]; pellets releasing 0.5 mg/kg/d (the no effect dose)): did not decrease bone mineral density | Osteocalcin ([2]; 0.7 mg/kg/d): 63.0 ± 27.7 µg/L | Osteocalcin ([2]; 2.1 mg/kg/d): 46.4 ± 13.8 µg/L | Deoxypyridinoline ([2]; 0.7 mg/kg/d): 63.6 ± 14.7 μM/mM creatinine | Deoxypyridinoline ([2]; 2.1 mg/kg/d): 81.5 ± 11.3 μM/mM creatinine | Bone area/Tissue area ([4]; 0.7 mg/kg/d, 27 days): 6.9 ± 2.1% | Bone area/Tissue area ([4]; 2.1 mg/kg/d, 27 days): 6.3 ± 1.7 % | Active lifespan of an osteoblast ([4]; mouse, in vivo): about 260 hours | Increase in empty erosion cavities or reversal perimeter ([4]; mouse, in vivo): 3 fold | Wall width ([4]; mouse, in vivo): about 8 μm | Osteoblast perimeter ([7]; mouse, in vivo): 2.1±1.1% | Osteoclast perimeter ([7]; mouse, in vivo): 1.00±0.41%
Structure (SMILES): C[C@]12C=CC(=O)C=C1CC[C@@H]1[C@@H]2[C@@H](O)C[C@@]2(C)[C@H]1CC[C@]2(O)C(=O)CO [prednisolone]
Effect on bone mineral density ([1]; 1.4 mg/kg/d, pilot studies): invariably causes densitometric evidence of bone loss | Decrease of serum osteocalcin compared to placebo [2]: more than 50% | Body Weight ([3]; 0.7 mg/kg/d): 33.8 ± 4.3 g | Food Intake ([3]; 0.7 mg/kg/d): 3.6 ± 0.2 g/day | Seminal Vesicle Weight ([3]; 0.7 mg/kg/d): 92.7 ± 8.7 mg/100 g body weight | Body Weight ([3]; 2.1 mg/kg/d): 32.2 ± 4.2 g | Food Intake ([3]; 2.1 mg/kg/d): 3.7 ± 0.4 g/day | Seminal Vesicle Weight ([3]; 2.1 mg/kg/d): 83.1 ± 6.9 mg/100 g body weight | Hepatic fatty infiltration ([3]; sign of prednisolone toxicity, 27 days): absent | Decrease in mineralizing perimeter ([4]; 27 days): 26% | Decline in mineral appositional rate ([4]; higher dose (2.1 mg/kg/d), 27 days): 40% | Decline in trabecular width [4, 10]: 23% | Decline in vertebral cancellous bone area [4, 10]: 40% | Decrease in osteoid area ([4]; higher dose, 27 days): 29% | Decrease in osteoid perimeter ([4]; higher dose, 27 days): 34% | Decrease in osteoid width ([4]; higher dose, 27 days): 27% | Decrease in rate of bone formation ([4]; higher dose, 27 days): 53% | Decline in mineral appositional rate ([4]; lower dose (0.7 mg/kg/d), 27 days): 22% | CFU-F colonies ([5]; higher dose (2.1 mg/kg/d), placebo 1250±374, NS): 698±104 number per femur | Decrease in number of CFU-OB colonies ([5]; higher dose): 86% | Decrease in number of osteoclastic cells ([5]; higher dose): 65% | CFU-OB colonies ([5]; higher dose, placebo 375±257): 54±14 number per femur | Osteoclastic cells formed in response to 1.25(OH)2D3 ([5]; higher dose, placebo 1387±920): 492±311 number per femur | Apoptotic hypertrophic chondrocytes and bone marrow cells ([6]; either dose, mice): increase | Increase in osteoblast apoptosis in vertebrae ([6]; higher dose, 27 days, vs controls): 3 fold | Apoptotic osteocytes in femoral metaphyseal cortical bone ([6]; higher dose, 27 days, 131 osteocytes, none in controls): 28% | Osteoblast apoptosis in vertebral cancellous bone ([6]; higher dose, 27 days, controls 0.66%±0.07): 2.03%±0.34 | fAp, fraction of osteoblasts that undergoes apoptosis ([6]; higher dose, estimate with tAp doubled, placebo 0.6): 0.9 | Prevalence of osteoblast apoptosis (fraction) ([6]; higher dose, placebo 0.0066): 0.0203 | Osteoclast apoptosis ([6]; mice, 27 days): not observed | Decrease in osteoblast perimeter ([7]; higher dose, 7 days): 59% | Increase in osteoclast perimeter ([7]; higher dose, 7 days): 96%

Cancellous bone area ([9]; one value each, normal is 22.4±1.2 SEM): 11.1% and 8.8% | Osteoclast perimeter ([9]; normal is 0.9±0.2): 0% and 0.4% | Reversal perimeter ([9]; normal is 6.9±0.7): 13.5% and 15.4% | Osteoblast perimeter ([9]; normal is 7.6±0.4): 2.1% and 2.3% | Trabecular width ([9]; normal is 161±9): 62 μm and 118 μm
Structure (SMILES): C[C@]12C=CC(=O)C=C1CC[C@@H]1[C@@H]2C(=O)C[C@@]2(C)[C@H]1CC[C@]2(O)C(=O)CO [prednisone]
Apoptosis of osteoclasts or cortical osteocytes [8]: not observed | Apoptotic osteoblasts in cancellous bone ([8]; 15 to 25 mg/d for 3 to 6 yr, absent in controls): ~30%
